From patent publication US9771341B2, “Piperazine carbamates and methods of making and using same” (Abide Therapeutics, Inc., priority 2015, dated 2017)

Assays:
[1] = molecular target: T1, ABHD6 (Mus musculus, UniProt Q8R2Y0); assay: In vitro competitive activity-based protein profiling (mouse), ABHD6; format: biochemical; details: for inhibition at 1 µM: mouse proteome, in vitro, read-out: % Inhibition at 1 μM ABHD6; for IC50: mouse brain membrane fraction or cell lysates, 30 min preincubation at 37° C, FP-Rh probe
T1 construct: Proteomes (mouse brain membrane fraction or cell lysates); from tissue; host or cells: mouse brain membrane fraction (or unspecified cell lysates)
T1 sequence (Q8R2Y0 1-336): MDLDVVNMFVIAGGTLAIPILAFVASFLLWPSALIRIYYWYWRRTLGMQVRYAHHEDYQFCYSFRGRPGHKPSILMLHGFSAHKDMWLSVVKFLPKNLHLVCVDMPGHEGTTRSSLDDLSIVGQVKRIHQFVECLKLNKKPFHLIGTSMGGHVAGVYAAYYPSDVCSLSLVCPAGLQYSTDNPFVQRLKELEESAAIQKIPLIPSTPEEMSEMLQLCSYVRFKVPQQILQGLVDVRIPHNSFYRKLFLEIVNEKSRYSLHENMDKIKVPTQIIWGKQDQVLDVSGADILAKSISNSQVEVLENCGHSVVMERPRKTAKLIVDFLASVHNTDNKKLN
Method: (§1) In Vitro Competitive Activity-Based Protein Profiling (Mouse).
(§2) Proteomes (mouse brain membrane fraction or cell lysates) (50 μL, 1.0 mg/mL total protein concentration) were preincubated with varying concentrations of inhibitors at 37° C. After 30 min, FP-Rh (1.0 μL, 50 μM in DMSO) was added and the mixture was incubated for another 30 min at 37° C. Reactions were quenched with SDS loading buffer (50 μL-4×) and run on SDS-PAGE.

[2] = molecular target: T2, FAAH (Mus musculus, UniProt O08914); assay: Mouse brain proteomes from inhibitor treated mice, FAAH; format: in vivo; details: 5 mg/kg oral gavage, C57Bl/6J mice, brain proteome 4 h after administration
T2 construct: Proteomes (mouse brain membrane fraction or cell lysates); from tissue; host or cells: mouse brain membrane fraction (or unspecified cell lysates)
T2 sequence (O08914 1-579): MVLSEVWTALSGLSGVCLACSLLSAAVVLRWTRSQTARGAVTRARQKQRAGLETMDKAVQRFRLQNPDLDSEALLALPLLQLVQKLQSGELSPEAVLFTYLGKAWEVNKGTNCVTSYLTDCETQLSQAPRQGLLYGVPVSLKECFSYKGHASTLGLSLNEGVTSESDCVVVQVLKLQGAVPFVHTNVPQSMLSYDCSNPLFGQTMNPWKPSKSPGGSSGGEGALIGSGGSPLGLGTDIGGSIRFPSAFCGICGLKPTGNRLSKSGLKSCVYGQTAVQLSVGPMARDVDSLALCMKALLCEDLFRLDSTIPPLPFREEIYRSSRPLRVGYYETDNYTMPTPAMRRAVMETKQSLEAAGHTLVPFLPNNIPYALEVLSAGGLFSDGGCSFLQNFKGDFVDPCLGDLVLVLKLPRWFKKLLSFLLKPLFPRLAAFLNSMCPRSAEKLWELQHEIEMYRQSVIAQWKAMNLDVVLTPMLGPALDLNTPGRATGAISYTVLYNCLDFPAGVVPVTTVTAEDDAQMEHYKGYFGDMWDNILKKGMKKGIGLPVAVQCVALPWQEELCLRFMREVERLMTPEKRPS
Method: (§3) Preparation of Mouse Brain Proteomes from Inhibitor Treated Mice.
Inhibitors were administered to wild-type C57Bl/6J by oral gavage in a vehicle of polyethylene glycol. Each animal was sacrificed 4 h following administration and brain proteomes were prepared and analyzed according to previously established methods (See Niphakis, M. J., et al. (2011) ACS Chem. Neurosci. and Long, J. Z., et al. Nat. Chem. Biol. 5:37-44)

[3] = molecular target: T3, MAGL (Mus musculus, UniProt O35678); assay: Mouse brain proteomes from inhibitor treated mice, MAGL; format: in vivo; details: 5 mg/kg oral gavage, C57Bl/6J mice, brain proteome 4 h after administration
T3 construct: Proteomes (mouse brain membrane fraction or cell lysates); from tissue; host or cells: mouse brain membrane fraction (or unspecified cell lysates)
T3 sequence (O35678 1-303): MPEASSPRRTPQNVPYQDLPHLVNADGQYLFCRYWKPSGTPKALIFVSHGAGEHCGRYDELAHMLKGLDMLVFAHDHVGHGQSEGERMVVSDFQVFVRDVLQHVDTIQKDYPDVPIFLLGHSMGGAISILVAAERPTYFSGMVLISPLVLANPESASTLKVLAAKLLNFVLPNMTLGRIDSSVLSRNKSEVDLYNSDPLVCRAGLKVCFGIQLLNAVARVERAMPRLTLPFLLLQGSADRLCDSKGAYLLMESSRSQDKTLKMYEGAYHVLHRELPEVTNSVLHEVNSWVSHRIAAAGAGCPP
Method: as §3
(§4) Inhibitors were administered to wild-type C57Bl/6J by oral gavage in a vehicle of polyethylene glycol.

[4] = molecular target: T2, FAAH; assay: In vitro competitive activity-based protein profiling (mouse), FAAH; format: biochemical; details: for inhibition at 1 µM: mouse proteome, in vitro; for IC50: mouse brain membrane fraction or cell lysates, 30 min preincubation at 37° C, FP-Rh probe
Procedure, shortened: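 Competitive ABPP: inhibitor exposure (30 min, 37° C) of mouse brain membrane or lysate proteome at 1.0 mg/mL, then labelling with FP-Rh for another 30 min. Activity quantified by in-gel fluorescence of FAAH bands after SDS-PAGE.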

[5] = molecular target: T1, ABHD6; assay: Mouse brain proteomes from inhibitor treated mice, ABHD6; format: in vivo; details: 5 mg/kg oral gavage, C57Bl/6J mice, brain proteome 4 h after administration
Method: as §3, §4

[6] = molecular target: T3, MAGL; assay: In vitro competitive activity-based protein profiling (mouse), MAGL; format: biochemical; details: for inhibition at 1 µM: mouse proteome, in vitro, read-out: % Inhibition at 1 μM MAGL; for IC50: mouse brain membrane fraction or cell lysates, 30 min preincubation at 37° C, FP-Rh probe
Method: as §1, §2

Row | Structure (SMILES) | inhibition at 1 µM [1] [%] | IC50 [1] [nM] | inhibition at 5 mg/kg [2] [%] | inhibition at 5 mg/kg [3] [%] | inhibition at 1 µM [4] [%] | IC50 [4] [nM] | inhibition at 5 mg/kg [5] [%] | inhibition at 1 µM [6] [%] | IC50 [6] [nM]
1 | O=C(O)[C@@H]1CCCN1c1cc(CN2CCN(C(=O)OC(C(F)(F)F)C(F)(F)F)CC2)cc(C(F)(F)F)c1 [Example 86, (3-((4-(((1,1,1,3,3,3-hexafluoropropan-2-yl)oxy)carbonyl)piperazin-1-yl)methyl)-5-(trifluoromethyl)phenyl)proline] | 25 to 75 | 100 to 1000 | < 25 | > 75 | < 25 | > 1000 | > 75 | > 75 | 100 to 1000
2 | O=C(OC(C(F)(F)F)C(F)(F)F)N1CCN(Cc2ccc(Cl)cc2N2CC[C@H](N3CCCC3=O)C2)CC1 [Example 42, 1,1,1,3,3,3-hexafluoropropan-2-yl (S)-4-(4-chloro-2-(2-oxo-[1,3′-bipyrrolidin]-1′-yl)benzyl)piperazine-1-carboxylate] | 25 to 75 | 100 to 1000 | < 25 | > 75 | < 25 | > 1000 | < 25 | > 75 | < 100
3 | CS(=O)(=O)N[C@H]1CCN(c2cc(C(F)(F)F)ccc2CN2CCN(C(=O)OC(C(F)(F)F)C(F)(F)F)CC2)C1 [Example 61, 1,1,1,3,3,3-hexafluoropropan-2-yl (S)-4-(2-(3-(methylsulfonamido)pyrrolidin-1-yl)-4-(trifluoromethyl)benzyl)piperazine-1-carboxylate] | < 25 | > 1000 | < 25 | > 75 | < 25 | > 1000 | < 25 | > 75 | < 100
4 | O=C(OC(C(F)(F)F)C(F)(F)F)N1CCN(Cc2cccc(OC(F)(F)F)c2N2CC3CCC(C2)O3)CC1 [Example 31, 1,1,1,3,3,3-hexafluoropropan-2-yl 4-(2-(8-oxa-3-azabicyclo[3.2.1]octan-3-yl)-3-(trifluoromethoxy)benzyl)piperazine-1-carboxylate] | < 25 | > 1000 | < 25 | 25 to 75 | < 25 | > 1000 | < 25 | > 75 | < 100
5 | CN(C)C(=O)C1CCN(c2cc(C(F)(F)F)ccc2CN2CCN(C(=O)OC(C(F)(F)F)C(F)(F)F)CC2)CC1 [Example 35, 1,1,1,3,3,3-hexafluoropropan-2-yl 4-(2-(4-(dimethylcarbamoyl)piperidin-1-yl)-4-(trifluoromethyl)benzyl)piperazine-1-carboxylate] | < 25 | > 1000 | < 25 | > 75 | < 25 | > 1000 | < 25 | > 75 | < 100
6 | Cc1cccc(CN2CCN(C(=O)OC(C(F)(F)F)C(F)(F)F)CC2)c1N1CC[C@H](CF)C1 [Example 56, 1,1,1,3,3,3-hexafluoropropan-2-yl (S)-4-(2-(3-(fluoromethyl)pyrrolidin-1-yl)-3-methylbenzyl)piperazine-1-carboxylate] | < 25 | > 1000 | < 25 | > 75 | < 25 | > 1000 | < 25 | > 75 | < 100
7 | O=C(OC(C(F)(F)F)C(F)(F)F)N1CCN(Cc2ccc(C(F)(F)F)cc2N2CC3CN(C4CC4)CC3C2)CC1 (stereo not drawn) [Example 65, 1,1,1,3,3,3-hexafluoropropan-2-yl 4-(2-(5-cyclopropylhexahydropyrrolo[3,4-c]pyrrol-2(1H)-yl)-4-(trifluoromethyl)benzyl)piperazine-1-carboxylate] | 25 to 75 | > 1000 | < 25 | < 25 | < 25 | > 1000 | < 25 | > 75 | < 100
8 | Cc1ccc(CN2CCN(C(=O)OC(C(F)(F)F)C(F)(F)F)CC2)c(N2CC[C@H](CF)C2)c1 [Example 53, 1,1,1,3,3,3-hexafluoropropan-2-yl (S)-4-(2-(3-(fluoromethyl)pyrrolidin-1-yl)-4-methylbenzyl)piperazine-1-carboxylate] | < 25 | > 1000 | < 25 | > 75 | < 25 | > 1000 | < 25 | > 75 | < 100
9 | O=C(OC(C(F)(F)F)C(F)(F)F)N1CCN(Cc2ccc(Cl)cc2N2CC[C@H](CF)C2)CC1 [Example 4, 1,1,1,3,3,3-hexafluoropropan-2-yl (S)-4-(4-chloro-2-(3-(fluoromethyl)pyrrolidin-1-yl)benzyl)piperazine-1-carboxylate] | < 25 | > 1000 | < 25 | > 75 | < 25 | > 1000 | < 25 | > 75 | < 100
10 | O=C(OC(C(F)(F)F)C(F)(F)F)N1CCN(Cc2ccc(C(F)(F)F)cc2N2CCCC2CO)CC1 (stereo not drawn) [Example 71, 1,1,1,3,3,3-hexafluoropropan-2-yl 4-(2-(2-(hydroxymethyl)pyrrolidin-1-yl)-4-(trifluoromethyl)benzyl)piperazine-1-carboxylate] | < 25 | > 1000 | < 25 | > 75 | < 25 | > 1000 | < 25 | > 75 | < 100
11 | O=C(OC(C(F)(F)F)C(F)(F)F)N1CCN(Cc2ccc(CN3CCOCC3)cc2OC(F)(F)F)CC1 [Example 23, 1,1,1,3,3,3-hexafluoropropan-2-yl 4-(4-(morpholinomethyl)-2-(trifluoromethoxy)benzyl)piperazine-1-carboxylate] | < 25 | > 1000 | < 25 | > 75 | < 25 | > 1000 | < 25 | > 75 | < 100
12 | O=C(OC(C(F)(F)F)C(F)(F)F)N1CCN(Cc2ccc(C(F)(F)F)cc2N2C3CCC2COC3)CC1 [Example 58, 1,1,1,3,3,3-hexafluoropropan-2-yl 4-(2-(3-oxa-8-azabicyclo[3.2.1]octan-8-yl)-4-(trifluoromethyl)benzyl)piperazine-1-carboxylate] | – | – | < 25 | – | < 25 | > 1000 | – | – | –
